Experimental data reported in patent publication EP4160211A1, “DETECTING THE EXPOSURE OF A SUBJECT TO A THYROID DISRUPTING CHEMICAL, EVEN BEFORE HYPOTHYROIDISM APPEARS” (Moreno Navarro, José Carlos, priority 2021, dated 2023).
Read-outs that look alike come from different tables or passages of the source.

Tests used:
[1] = molecular target: T1, Dehal1 (Homo sapiens, UniProt Q6PHW0); assay: In vitro Dehal1 inhibition assay (inhibition of 125I-MIT deiodination in homogenates of DEHAL1-transfected HEK293 cells); type: biochemical
T1 construct: expressed in transfected cells; host or cells: HEK293
T1 sequence (Q6PHW0 1-289): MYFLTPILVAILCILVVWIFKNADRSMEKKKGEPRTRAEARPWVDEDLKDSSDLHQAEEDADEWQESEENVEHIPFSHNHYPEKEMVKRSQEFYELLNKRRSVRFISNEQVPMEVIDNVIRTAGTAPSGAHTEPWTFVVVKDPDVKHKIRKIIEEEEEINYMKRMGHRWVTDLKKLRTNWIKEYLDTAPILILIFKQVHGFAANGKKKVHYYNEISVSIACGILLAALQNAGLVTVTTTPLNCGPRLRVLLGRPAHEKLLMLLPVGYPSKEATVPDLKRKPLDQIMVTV
Description: Human embryonic kidney (HEK293) cells were grown in Dulbecco's modified Eagle medium (Gibco) supplemented with 10% fetal calf serum and 0.1 mM flavin mononucleotide (FMN, MP Biochemicals) in 6-well plates. At 50% confluency, cells were transfected with 1 µg of wild-type or mutant DEHAL1 plasmid or empty pcDNA3.1 plasmid, using Fugene6 (Roche). After 24 h incubation, cells were washed with 1 ml PBS and collected in 0.5 ml PED buffer (0.1 M phosphate, pH 7.2, 2 mM EDTA, 1 mM dithiothreitol) per well and kept on ice. Samples were sonicated twice for 10 sec using Soniprep150, frozen on dry ice-ethanol and stored at -80 °C. For experiments testing FMN-response, culture medium was supplemented with 0-2 mM FMN.
The experiments follow described methods to determine the MIT deiodination capacity of Dehal1-transfected cells (8), adding the candidate chemicals to test their capacity to inhibit such reaction. Basically, labelled [^125I]MIT was prepared by radioiodination of L-tyrosine (Sigma-Aldrich) with ^125I - (specific activity: 15 Ci/mg, Amersham Biosciences) using the chloramine-T method and purified by chromatography on cation-exchange resin (Dowex 50WX2-200, Sigma-Aldrich). […] Incubations contained […] [^125I]MIT, 0.1 µM unlabeled MIT and 10-25 µg cell homogenate protein in a final volume of 0.1 ml PED buffer. Reactions were started by the addition of NADPH (final concentration 0.1 mM), and the mixtures were incubated for 60 min at 37°C. Reactions were stopped by the addition of 0.9 ml of 10% acetic acid on ice. Samples were applied to 2 ml Dowex 50WX2-200 columns, and successively eluted with 3x1 ml 10% acetic acid (containing eluted iodide), 1 ml water, and 4×1ml 1 M NH4OH (containing iodotyrosines). Radioactivity was measured in each fraction in a NE1600 gamma counter (NE Technologies) and percentage deiodination was calculated. Protein concentrations in cell homogenates were measured by Bradford's assay; iodotyrosine deiodinase activity was corrected for the slight 1251 - production in empty pcDNA3.1-transfected cell homogenates and expressed per mg protein.
For the general screen of inhibition potential of each compound, 10 µM unlabeled chemicals tested (Sigma-Aldrich) were added to the incubation mixture together with […] unlabeled MIT with no further modifications on the protocol above. Said chemical tested were: Tetrabromobisphenol A (TBBPA), Bisphenol A (BPA), Pentachlorophenol (PCP), tetraiodophenol (TIP), Tetrabromophenol (TBP), tetrachlorophenol (TCP), tetraafluorophenol (TFP), Di-iodo-nitro-Pheol (DINP), Di-chloro-nitrophenol (DCNP), Dibromophenol (DBP), Diclorophenol (DCP), iodophenol (IP), Bromophenol (BP), Fluorophenol (FP), phenol (P), Tyrosien(Tyr), mononitrotyrosine (MNT), monochlorotyrosine (MCT), Monoiodotyrosine (MIT), Diiodotyrosine (DIT). As negative controls: empty pcDNA-transfected cells, DMSO, NaOH and Buffer.
Crude deiodination capacity obtained in individual chemical-containing mixture was calculated, including the vehicle (DMSO)-containing mixture. Percentage inhibition of each compound was determined with respect to the vehicle containing mixture. For inhibition curves of particular compounds, equimolar concentrations of unlabeled MIT (0, 0.1, 1, 10, 100 µM) and BPA, TBBPA, PCP and MNT were used, and % inhibition of individual compounds was calculated as above.

[2] = tested on: thyroid hormone axis; assay: In vivo administration to mice: hormonal and biochemical effects in plasma and urine; settings: for UIC / UIC % variation: urine
Description: Mice. Female wild type mice from C57BI/6 J strain were purchased from Charles River company. Animals were maintained under standard conditions of temperature (22-24°C), humidity (40-50%), 12-12 hours of dark/light cycle, water and rodent diet ad libitum. Five months old female mice were acclimatized prior to the experiment and handled based on animal bioethical protocols. The experimental procedures were approved by the Research Ethical Committee of the Autonomous University of Madrid and the competent department of Comunidad de Madrid. Tetrabromobisphenol A powder (TBBPA, 97% purity) obtained through Sigma-Aldrich was dissolved in a vehicle containing 25% ethanol and 75% of peanut oil. A TBBPA dose of 500 mg/kg of body weight was injected subcutaneously for 7 days. Blood and urine collection were performed at the end of the experiment (Fig. 1).
Blood, urine and tissue collection. At day 7, blood was collected from cardiac puncture in heparinized tubes and centrifuged (2000 g for 10 minutes) to isolate plasma. Urine was collected using hydrophobic sand (Coastline Global, USA). Samples were kept at -20°C until used. For tissue isolation, mice were kept under deep anesthesia (Sevorane) and euthanized by cervical dislocation.
Previously published methods were modified to allow the simultaneous quantification of MIT, DIT, T3, T4.
Sample preparation: 100 µL of urine/plasma were added with suitable amounts of stable isotope-labeled internal standards (5.4 pmol 13C9-MIT, 4.0 pmol 13C9-DIT, 2.8 pmol 13C6-T3, 2.4 pmol 13C6-T4), vortexed, stored 30 min at room temperature to equilibrate, and deproteinized with the addition of 300µL of cold-acetone and the storage at 4°C for 30 min. After centrifugation at 22780 × g for 10 min, supernatants were dried at 40 °C under a gentle stream of nitrogen, derivatized with 200 µL of 3.0 N hydrochloric acid in n-butanol and incubated for 45 min at 60 °C, for the formation of the corresponding butyl esters of tyrosines, thyroid hormones, and their internal standards. After further evaporation to dryness, the sample was reconstituted with 500 µL of 0,1 M potassium buffer (pH=4) and loaded onto Agilent (Santa Clara, CA, USA) Bond-Elut Certify 130 mg SPE cartridges, to perform the extraction according to the procedure described by Saba et al.. The eluate was dried once again under nitrogen, the dried residue was reconstituted with 100 µL of acetonitrile/0.1 M hydrochloric acid (50/50 by volume), and 1µL of it was injected into the HPLC-MS-MS system. Calibration curves ranged from 0.1 to 100.0 ng/mL and were daily prepared by serial dilution in methanol and derivatized with samples.
Instrument layout: AB-Sciex (Concord, Ontario, Canada) QTRAP 6500+ triple quadrupole mass spectrometer with ESI source, coupled to an Agilent (Santa Clara, CA, USA) 1290 UHPLC system, fitted with a 110 Å, 2x50 mm, 3µm particle size, Gemini C18 column (Phenomenex, Torrance, CA).
Operative conditions: the chromatographic separation was carried out at 400 µL/min as a flow rate, using methanol/acetonitrile (20/80, by volume) added with 0.1% formic acid (solvent A) and water containing 0.1% formic acid (solvent B). The elution gradient was the following: 95 % solvent B from 0 to 3 min; 35 % solvent B from 3 to 8.5 min; 0 % solvent B from 8.5 to 9 min; 0 % solvent B from 9 to 11 min; 95 % solvent B from 11 to 14 min (equilibration step). […] Three transitions were used to monitor each compound and internal standard: that one with the highest signal/noise ratio was used as a quantifier (Q), while the other two as qualifiers (q).

[3] = dose-response inhibition assay, 0-100 µM
[4] = general screen, compound at 10 µM
[5] = read-out: inhibition of Dehal1 activity
[6] = MNT 1mg/Kg b.w./day, for 7 days
[7] = vs WT, MNT 1mg/Kg b.w./day, for 7 days
[8] = TBBPA 500 mg/kg b.w/day subcutaneously for 7 days
[9] = TBBPA 500 mg/kg b.w/day subcutaneously for 7 days, plasma
[10] = vs WT, TBBPA 500 mg/kg b.w/day for 7 days
[11] = vs WT, TBBPA 500 mg/kg b.w/day for 7 days, plasma

CC(C)(c1ccc(O)cc1)c1ccc(O)cc1 [BPA, Bisphenol A, reference compound]
inhibition capacity [1, 3]: no inhibition capacity

N[C@@H](Cc1cc(I)c(O)c(I)c1)C(=O)O [DIT, Diiodotyrosine, reference compound]
inhibition of labeled-MIT deiodination [1, 4]: maximal inhibition

Oc1c(Cl)c(Cl)c(Cl)c(Cl)c1Cl [PCP, Pentachlorophenol]
IC50 [1, 3]: ~25 µM | inhibition at 10 µM [1, 5]: 22% | inhibition at 100 µM [1, 5]: 78% | inhibition at 10 µM ([1]; read-out: inhibition of labeled-MIT deiodination): 55%

N[C@@H](Cc1ccc(O)c(I)c1)C(=O)O [MIT, Monoiodotyrosine, reference compound]
inhibition of labeled-MIT deiodination [1, 4]: maximal inhibition

N[C@@H](Cc1ccc(O)c([N+](=O)[O-])c1)C(=O)O [MNT, 3-L-nitrotyrosine, reference compound]
IC50 [1, 3]: < 0.01 µM | inhibition of labeled-MIT deiodination [1, 4]: maximal inhibition | DIT-urine [2, 6]: 0.29 ± 0.06 ng/mL | MIT-urine [2, 6]: 1.94 ± 0.13 ng/mL | MIT/DIT urine [2, 6]: 6,69 | T3 [2, 6]: 0.27 ± 0.02 ng/mL | T4 [2, 6]: 25.35 ± 1.2 ng/mL | TSH [2, 6]: 1.07 ± 0.07 mU/L | UIC [2, 6]: 198 ± 14.43 µg/L | DIT-urine % variation [2, 7]: -19% | MIT-urine % variation [2, 7]: +46% | MIT/DIT urine % variation [2, 7]: +80% | T3 % variation [2, 7]: -5% | T4 % variation [2, 7]: +8% | TSH % variation [2, 7]: +7% | UIC % variation [2, 7]: +47%

CC(C)(c1cc(Br)c(O)c(Br)c1)c1cc(Br)c(O)c(Br)c1 [TBBPA, Tetrabromobisphenol A]
IC50 [1, 3]: ~25 µM | inhibition at 10 µM ([1]; dose-response inhibition assay, 10 µM, read-out: inhibition of Dehal1 activity): 18% | inhibition at 100 µM ([1]; dose-response inhibition assay, 100 µM, read-out: inhibition of Dehal1 activity): 78% | inhibition at 10 µM ([1]; general screen, compound at 10 µM, read-out: inhibition of labeled-MIT deiodination): 37% | T3 ([2]; TBBPA 500 mg/kg b.w/day for 7 days, plasma): remained unchanged | DIT-plasma [2, 8]: 0.06 ± 0.01 ng/mL | DIT-urine [2, 8]: 0.23 ± 0.04 ng/mL | MIT-plasma [2, 8]: 0.21 ± 0.01 ng/mL | MIT-urine [2, 8]: 2.53 ± 0.11 ng/mL | MIT/DIT plasma [2, 8]: 3,5 | MIT/DIT urine [2, 8]: 11 | T4 [2, 9]: 14.45 ± 1.65 ng/mL | TSH [2, 9]: 1.3 ± 0.025 mU/L | UIC [2, 8]: 170.6 ± 13.9 µg/L | DIT-plasma % variation [2, 10]: -62% | DIT-urine % variation [2, 10]: -36% | MIT-urine % variation [2, 10]: +73% | MIT/DIT plasma % variation [2, 10]: +250% | MIT/DIT urine % variation [2, 10]: +172% | T4 % variation [2, 11]: -38% | TSH % variation [2, 11]: +23% | UIC % variation [2, 10]: +127%
